Structures can show the parent of a compound that is named as a salt.
Key:
[1] = biological target: T1, GST-TIE2 (intracellular domains of human TIE2) (Homo sapiens, UniProt Q02763); test: TIE-2 enzyme assay (TIE2-E), LANCE method; assay type: biochemical; details: 80 uM ATP
T1 construct: made in house
Experimental: TIE-2Enzyme Assay (TIE2-E)
The TIE-2 enzyme assay used the LANCE method (Wallac) and GST-TIE2, baculovirus expressed recombinant constructs of the intracellular domains of human TIE2 (amino acids 762–1104, GenBank Accession # L06139) tagged by GST). […] This peptide phosphorylation was detected using the following procedure: for enzyme preactivation, GST-TIE2 was incubated for 30 mins at room temperature with 2 mM ATP, 5 mM MgCl2 and 12.5 mM DTT in 22.5 mM HEPES buffer (pH7.4). Preactivated GST-TIE2 was incubated for 30 mins at room temperature in 96 well plates with 1 μM D1-15 peptide, 80 uM ATP, 10 mM MgCl2, 0.1 mg/ml BSA and the test compound (diluted from a 10 mM stock in DMSO, final DMSO concentration was 2.4%) in 1 mM HEPES (pH7.4). The reaction was stopped by the addition of EDTA (final concentration 45 mM). Streptavidin linked-APC (allophycocyanin, Molecular Probe) and Europium-labeled anti-phosphorylated tyrosine antibody (Wallac) were then added at the final concentration of 17 μg/well and 2.1 μg/well, respectively. The APC signal was measured using an ARVO multilabel counter. (Wallac Berthold Japan). The percent inhibition of activity was calculated relative to blank control wells. The concentration of test compound that inhibits 50% of activity (IC50) was interpolated using nonlinear regression (Levernberg-Marquardt) and the equation, y=Vmax (1−x/(K+x))+Y2, where “K” was equal to the IC50. The IC50 values were converted to pIC50 values, i.e., −log IC50 in Molar concentration.

[2] = biological target: T2, TIE2 intracellular domain/c-fms extracellular domain (TIE2/c-fms) chimeric protein expressing mouse 3T3 cells (Homo sapiens, UniProt Q02763); test: TIE-2 autophosphorylation assay (TIE2-C), ELISA; assay type: cell-based; details: TIE2/c-fms 3T3 cells, MCSF activation
T2 construct: a TIE2 intracellular domain/c-fms extracellular domain (TIE2/c-fms) chimeric protein; expressed in transfected cells; host or cells: mouse 3T3 cells
T2 sequence (Q02763 770-1124 limits assumed, change not shown): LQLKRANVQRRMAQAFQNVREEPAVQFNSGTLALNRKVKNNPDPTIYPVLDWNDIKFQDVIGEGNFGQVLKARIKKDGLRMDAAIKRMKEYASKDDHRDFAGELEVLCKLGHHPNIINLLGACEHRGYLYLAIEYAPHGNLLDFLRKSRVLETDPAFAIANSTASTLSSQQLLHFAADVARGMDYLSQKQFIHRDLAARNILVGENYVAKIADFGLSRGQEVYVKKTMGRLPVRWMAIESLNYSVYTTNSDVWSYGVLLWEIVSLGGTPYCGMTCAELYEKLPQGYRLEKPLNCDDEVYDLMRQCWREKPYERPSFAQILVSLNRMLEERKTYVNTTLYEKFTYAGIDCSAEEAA
Experimental: TIE-2 Autophosphorylation Assay (TIE2-C)
The TIE-2 autophosphorylation assay used an ELISA method and a TIE2 intracellular domain/c-fms extracellular domain (TIE2/c-fms) chimeric protein expressing mouse 3T3 cells. This assay measured the autophosphorylation level of TIE2 protein expressed in cells. The cells were cultured in high glucose DMEM (Sigma) containing 10% serum at 37° C. in a humidified 10% CO2, 90% air incubator. The test compound (diluted from a 10 mM stock in DMSO, final DMSO concentration was 0.1%) was incubated with TIE2/c-fms expressing cells for 1 hr in serum free DMEM in 96 well plates followed by the activation of TIE2/c-fms receptor using c-fms ligand, MCSF (macrophage colony stimulating factor). The culture media was removed by aspiration and the cells incubated for at least 30 mins on ice with lysis buffer containing 137 mM NaCl, 2 mM EDTA, 10% glycerol, […] sodium ortho vanadate and complete protease inhibitor cocktail (Roche) in 20 mM Tris-HCl (pH8.0). The cell extracts were transferred into Rat anti-c-fms antibody coated 96 well plates and incubated for 12 hrs at 4° C. The extracts were removed by aspiration and the plate was incubated with biotinylated anti-phosphotyrosine antibody, PT66 (Sigma) and then with HRP (Horseradish Peroxidase)-labeled streptavidin (PIERCE). The optical density at 450 nm derived from HRP catalyzed TMB was measured with an ARVO multilabel counter. (Wallac Berthold Japan). The percent inhibition of activity was calculated relative to blank control wells. The concentration of test compound that inhibits 50% of activity (IC50) was interpolated using nonlinear regression (Levernberg-Marquardt) and the equation, y=Vmax (1−x/(K+x))+Y2, where “K” was equal to the IC50. The IC50 values were converted to pIC50 values, i.e., −log IC50 in Molar concentration.

GST-VEGFR2 = biological target: T3, GST-VEGFR2 (Homo sapiens, UniProt P35968); test: VEGF-R2 enzyme assay (VEGF-E), LANCE method; assay type: biochemical; details: 75 μM ATP
T3 construct: GST-VEGFR2, baculovirus expressed recombinant constructs of the intracellular domains of human TIE2 tagged by GST; made in house
T3 sequence (P35968 786-1356 limits assumed): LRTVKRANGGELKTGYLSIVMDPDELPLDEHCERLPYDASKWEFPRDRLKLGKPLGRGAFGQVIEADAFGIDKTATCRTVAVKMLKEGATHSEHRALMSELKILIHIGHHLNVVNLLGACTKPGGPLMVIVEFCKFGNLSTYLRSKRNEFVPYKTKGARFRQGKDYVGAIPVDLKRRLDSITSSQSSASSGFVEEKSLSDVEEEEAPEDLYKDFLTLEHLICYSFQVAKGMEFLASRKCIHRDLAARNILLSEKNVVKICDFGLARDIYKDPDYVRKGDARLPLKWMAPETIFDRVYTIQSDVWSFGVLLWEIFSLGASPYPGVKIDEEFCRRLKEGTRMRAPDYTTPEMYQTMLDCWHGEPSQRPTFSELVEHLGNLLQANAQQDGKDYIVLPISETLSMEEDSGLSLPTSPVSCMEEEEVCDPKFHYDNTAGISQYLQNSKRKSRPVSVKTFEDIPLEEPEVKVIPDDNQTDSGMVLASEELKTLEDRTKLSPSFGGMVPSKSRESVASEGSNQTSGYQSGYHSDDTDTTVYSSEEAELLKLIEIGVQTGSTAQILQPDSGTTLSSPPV
Experimental: VEGF-R2 Enzyme Assay (VEGF-E)
The VEGF enzyme assay used the LANCE method (Wallac) and GST-VEGFR2, baculovirus expressed recombinant constructs of the intracellular domains of human […] tagged by GST. […] The reaction was stopped by the addition of EDTA (final concentration 50 mM). Streptavidin linked-APC (allophycocyanin, Molecular Probe) and Europium-labeled anti-phosphorylated tyrosine antibody (Wallac) were then added at the final concentration of 15 nM and 1 nM, respectively. The APC signal was measured using an ARVO multilabel counter (Wallac Berthold, Japan). The percent inhibition of activity was calculated relative to blank control wells. The concentration of test compound that inhibits 50% of activity (IC50) was interpolated using nonlinear regression (Levernberg-Marquardt) and the equation, y=Vmax (1−x/(K+x))+Y2, where “K” was equal to the IC50. The IC50 values were converted to pIC50 values, i.e., −log IC50 in Molar concentration.

T1 sequence (Q02763 762-1104): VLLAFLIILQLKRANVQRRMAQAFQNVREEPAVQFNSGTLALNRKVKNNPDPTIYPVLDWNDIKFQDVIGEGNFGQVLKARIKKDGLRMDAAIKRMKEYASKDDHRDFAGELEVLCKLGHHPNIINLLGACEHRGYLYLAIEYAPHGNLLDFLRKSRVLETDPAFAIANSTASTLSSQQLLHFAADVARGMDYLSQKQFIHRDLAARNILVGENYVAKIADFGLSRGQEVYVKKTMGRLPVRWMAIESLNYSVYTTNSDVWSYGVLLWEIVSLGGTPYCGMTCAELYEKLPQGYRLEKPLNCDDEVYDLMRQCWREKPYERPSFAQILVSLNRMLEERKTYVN

| IC50 [1] [nM] | IC50 [2] [nM] | IC50 (GST-VEGFR2) [nM] | Compound |
| --- | --- | --- | --- |
| 100 to 1000 | 100 to 1000 | – | COC(=O)Nc1nc2cc([S+]([O-])c3ccc(NC(=O)Nc4cc(Cl)ccc4Cl)cc3)ccc2[nH]1 (centres unmarked) [Example 79, Methyl N-(5-(4-((2,5-dichlorophenyl)aminocarbonylamino)phenylsulfinyl)-1H-benzimidazol-2-yl)carbamate] |
| < 100 | < 100 | < 100 | CCc1cccc(NC(=O)Nc2cccc(Oc3ccc4[nH]c(NC(=O)OC)nc4c3)c2)c1 [Example 16, Methyl N-(5-(3-((3-ethylphenyl)aminocarbonylamino)phenoxy)-1H-benzimidazol-2-yl)carbamate] |
| < 100 | < 100 | < 100 | O=C(Nc1ccc(Oc2ccc3nc(NC(=O)c4cccs4)[nH]c3c2)cc1)Nc1cc(C(F)(F)F)ccc1F [Example 100, N-(5-(4-((2-Fluoro-5-(trifluoromethyl)phenyl)aminocarbonylamino)phenoxy)-1H-benzimidazol-2-yl)-2-thiophenecarboxamide] |
| < 100 | 1000 to 10000 | < 100 | O=C(Nc1ccc(Oc2ccc3nc(NC(=O)c4ccc(-n5cccc5)cc4)[nH]c3c2)cc1)Nc1cc(C(F)(F)F)ccc1F [Example 90, N-(5-(4-((2-Fluoro-5-(trifluoromethyl)phenyl)aminocarbonylamino)phenoxy)-1H-benzimidazol-2-yl)-4-(pyrrol-1-yl)benzamide] |
| < 100 | 100 to 1000 | < 100 | COC(=O)Nc1nc2ccc(Oc3cccc(NC(=O)Nc4cc(C(F)(F)F)ccc4Cl)c3)cc2[nH]1 [Example 52, Methyl N-(5-(3-((2-chloro-5-(trifluoromethyl)phenyl)aminocarbonylamino)phenoxy)-1H-benzimidazol-2-yl)carbamate hydrochloride] |
| < 100 | 100 to 1000 | < 100 | O=C(Nc1ccc(Oc2ccc3nc(NC(=O)c4c[nH]c5ccccc45)[nH]c3c2)cc1)Nc1cc(C(F)(F)F)ccc1F [Example 95, N-(5-(4-((2-Fluoro-5-(trifluoromethyl)phenyl)aminocarbonylamino)phenoxy)-1H-benzimidazol-2-yl)(1H-indole-3-carboxamide)] |
| 1000 to 10000 | 100 to 1000 | – | COC(=O)Nc1nc2ccc(Oc3ccc(NC(=S)Nc4cccc(C(F)(F)F)c4)cc3)cc2[nH]1 [Example 186, Methyl N-(5-(4-((3-(trifluoromethyl)phenyl)aminothiocarbonylamino)phenoxy)-1H-benzimidazol-2-yl)carbamate] |
| < 100 | 100 to 1000 | 100 to 1000 | CC(=O)Nc1nc2ccc(Oc3ccc(NC(=O)Nc4cc(C(F)(F)F)ccc4F)nc3)cc2n1Cc1ccccc1 [Example 110] |
| 100 to 1000 | 100 to 1000 | 100 to 1000 | CCc1cccc(NC(=O)Nc2ccc(Oc3ccc4[nH]c(NC(=O)OC)nc4c3)nc2)c1 [Example 39, Methyl N-(5-(5-((3-ethylphenyl)aminocarbonylamino)-2-pyridyloxy)-1H-benzimidazol-2-yl)carbamate] |
| < 100 | 100 to 1000 | 100 to 1000 | COC(=O)Nc1nc2ccc(Oc3ccc(NC(=O)Nc4cc(C(F)(F)F)ccc4F)c[n+]3[O-])cc2[nH]1 [Example 107, Methyl N-(5-(5-((2-fluoro-5-(trifluoromethyl)phenyl)aminocarbonylamino)-1-oxo-2-pyridyloxy)-1H-benzimidazol-2-yl)carbamate] |
| < 100 | 100 to 1000 | – | O=C(Nc1ccc(Oc2ccc3[nH]c(NC(=O)c4ccccc4)nc3c2)cc1)Nc1cc(C(F)(F)F)ccc1F [Example 99, N-(5-(4-((2-Fluoro-5-(trifluoromethyl)phenyl)aminocarbonylamino)phenoxy)-1H-benzimidazol-2-yl)benzamide] |
| 100 to 1000 | 100 to 1000 | < 100 | CN1CCN(CCNc2nc3cc(Oc4ccc(NC(=O)Nc5cc(C(F)(F)F)ccc5F)cc4)ccc3[nH]2)CC1 [Example 104, 2-(2-(4-Methyl-1-piperazino)ethylamino)-5-(4-((2-fluoro-5-(trifluoromethyl)phenyl)aminocarbonylamino)phenoxy)-1H-benzimidazole] |
| < 100 | < 100 | < 100 | COC(=O)Nc1nc2c(Br)cc(Oc3ccc(NC(=O)Nc4cc(C(F)(F)F)ccc4F)cc3)cc2s1.Cl [Example 65, Methyl N-(4-bromo-6-(4-((6-fluoro-3-(trifluoromethylphenyl)aminocarbonylamino)phenoxy)benzthiazol-2-yl)carbamate hydrochloride] |
| 100 to 1000 | 100 to 1000 | < 100 | COC(=O)Nc1nc2ncc(Oc3ccc(NC(=O)Nc4cc(C(F)(F)F)ccc4Cl)cc3)cc2[nH]1 [Example 73, Methyl N-(6-(4-((2-chloro-5-(trifluoromethyl)phenyl)aminocarbonylamino)phenoxy)-3,4-diaza-1H-indole-2-yl)carbamate dihydrochloride] |
| 100 to 1000 | 100 to 1000 | 100 to 1000 | COC(=O)Nc1nc2cc(Oc3ccc(NC(=O)Nc4cc(Cl)ccc4Cl)cn3)ccc2[nH]1 [Example 112, Methyl N-(5-(5-((2,5-dichlorophenyl)aminocarbonylamino)-2-pyridyloxy)-1H-benzimidazol-2-yl)carbamate dihydrochloride] |
| < 100 | 100 to 1000 | – | COC(=O)Nc1nc2cc(Sc3ccc(NC(=O)Nc4cc(Cl)ccc4Cl)cc3)ccc2[nH]1 [Example 57, Methyl N-(5-(4-((2,5-dichlorophenyl)aminocarbonylamino)phenylthio)-1H-benzimidazol-2-yl)carbamate] |
| 1000 to 10000 | 1000 to 10000 | < 100 | COC(=O)Nc1nc2cc(Oc3ccc(NC(=S)Nc4cccc(Cl)c4)cc3)ccc2[nH]1 [Example 184, Methyl N-(5-(4-((3-chlorophenyl)aminothiocarbonylamino)phenoxy)-1H-benzimidazol-2-yl)carbamate] |
| 100 to 1000 | 100 to 1000 | < 100 | CN1CCN(CCCNc2nc3ccc(Oc4ccc(NC(=O)Nc5cc(C(F)(F)F)ccc5F)cc4)cc3[nH]2)CC1 [Example 106, 2-(3-(4-methyl-1-piperazino)propylamino)-5-(4-((2-fluoro-5-(trifluoromethyl)phenyl)aminocarbonylamino)phenoxy)-1H-benzimidazole] |
| 100 to 1000 | 1000 to 10000 | < 100 | CN(C)CCNc1nc2cc(Oc3ccc(NC(=O)Nc4cc(C(F)(F)F)ccc4F)cc3)ccc2[nH]1 [Example 105, 2-(2-(Dimethylamino)ethylamino)-5-(4-((2-fluoro-5-(trifluoromethyl)phenyl)aminocarbonylamino)phenoxy)-1H-benzimidazole] |
